The OligoGym collection
These antisense oligonucleotides have a phosphorothioate backbone; sugars and methylation of C are not fully specified.

Legend:
Settings in all cases: ASO
[1] = target: PRKAR2A
[2] = target: CHEK2
[3] = target: RIPK2
Also: test concentration or dose not given here.

CGGGATCTGGATGTGGCTCA
remaining target (mRNA or protein) (fraction of control) [1]: 0.81

CGTGCTGGTAGAGGAGCTGG
remaining target (mRNA or protein) (fraction of control) [2]: 0.77

CGTTCATGGTCCCGGGCGCT
remaining target (mRNA or protein) (fraction of control) [3]: 0.76

CTAGGAACTGGAACTTCCAA
remaining target (mRNA or protein) (fraction of control) [1]: 0.91

CTCATGCCGGCGGCGGCCGA
remaining target (mRNA or protein) (fraction of control) [1]: 0.96

CTCTCGAAAGCCAGCTTTAC
remaining target (mRNA or protein) (fraction of control) [2]: 0.31

CTGACACCTCTAGTGATTTA
remaining target (mRNA or protein) (fraction of control) [1]: ≥ 1

CTGGATGTGGCTCATGCCGG
remaining target (mRNA or protein) (fraction of control) [1]: 0.52

CTTGGGACTGGGTAACGCTG
remaining target (mRNA or protein) (fraction of control) [2]: 0.93

GAAGCCACGGGTGTCTTAAG
remaining target (mRNA or protein) (fraction of control) [2]: 0.86

GACGGCGTTTTCCTTTCCCT
remaining target (mRNA or protein) (fraction of control) [2]: 0.49

GACTTCAGGAATGAAGTTGT
remaining target (mRNA or protein) (fraction of control) [2]: ≥ 1

GAGAGACATGCCGTTTTGAA
remaining target (mRNA or protein) (fraction of control) [1]: 0.51

GAGAGCTGGGTCTGCCTCTC
remaining target (mRNA or protein) (fraction of control) [2]: 0.73

GAGCAGCGGAGTGTGGATGT
remaining target (mRNA or protein) (fraction of control) [3]: 0.3

GATAATTGTCCCTCCTTCTG
remaining target (mRNA or protein) (fraction of control) [3]: ≥ 1

GATACGCCCCTGCACGAGCG
remaining target (mRNA or protein) (fraction of control) [3]: 0.65

GCAGATGGCCTCCCCGTTCA
remaining target (mRNA or protein) (fraction of control) [3]: 0.84

GCAGCGGGCAATCTCGACCT
remaining target (mRNA or protein) (fraction of control) [1]: 0.5

GCAGGTCGGCGAGTTTGTGG
remaining target (mRNA or protein) (fraction of control) [3]: ≥ 1

GCATGTTTATACTTTGGACT
remaining target (mRNA or protein) (fraction of control) [1]: 0.83

GCGCAACCCTACGCTACCAC
remaining target (mRNA or protein) (fraction of control) [1]: 0.53

GCGGCCACTGTCTCCGCGCT
remaining target (mRNA or protein) (fraction of control) [1]: 0.67

GCTGTTCCTCATAGTGTGAG
remaining target (mRNA or protein) (fraction of control) [1]: ≥ 1

GGATCTGGATGTGGCTCATG
remaining target (mRNA or protein) (fraction of control) [1]: 0.71

GGATGTGGCTCATGCCGGCG
remaining target (mRNA or protein) (fraction of control) [1]: 0.94

GGCCTCCCCGTTCATGGTCC
remaining target (mRNA or protein) (fraction of control) [3]: 0.45

GGCTCATGCCGGCGGCGGCC
remaining target (mRNA or protein) (fraction of control) [1]: 0.62

GGGTGTTGTACATCAGAGCT
remaining target (mRNA or protein) (fraction of control) [1]: 0.87

GTACTGCACAGCCAAGAGCA
remaining target (mRNA or protein) (fraction of control) [2]: 0.79

GTAGAGCTGTGGATTCATTT
remaining target (mRNA or protein) (fraction of control) [2]: 0.67

GTCAGTAGTGTCTAGTAATT
remaining target (mRNA or protein) (fraction of control) [3]: 0.52

GTGCTCGGTGAGGTATATCA
remaining target (mRNA or protein) (fraction of control) [3]: 0.18

GTGGCTCATGCCGGCGGCGG
remaining target (mRNA or protein) (fraction of control) [1]: ≥ 1

TAATCTTTATAAGACAGTCC
remaining target (mRNA or protein) (fraction of control) [2]: 0.88

TAATGAATGGGCCTTCAGAA
remaining target (mRNA or protein) (fraction of control) [1]: ≥ 1

TACTAAAATGTCATAAGTTC
remaining target (mRNA or protein) (fraction of control) [1]: ≥ 1

TATCCTTTTATGAAACACAT
remaining target (mRNA or protein) (fraction of control) [3]: 0.69

TATTCATCTCTTAATGCCTT
remaining target (mRNA or protein) (fraction of control) [2]: 0.61

TATTCCATAATTAAATCCAA
remaining target (mRNA or protein) (fraction of control) [2]: ≥ 1

TCAGCAGTGGTTCATCAAAG
remaining target (mRNA or protein) (fraction of control) [2]: 0.63

TCAGTGACACTTGAGTCCTA
remaining target (mRNA or protein) (fraction of control) [2]: 0.87

TCCACAGCACGGTTATACCC
remaining target (mRNA or protein) (fraction of control) [2]: 0.28

TCCCCGTTCATGGTCCCGGG
remaining target (mRNA or protein) (fraction of control) [3]: 0.24

TCCTTTTGCTGATGATCTTT
remaining target (mRNA or protein) (fraction of control) [2]: 0.57

TCTATTAAACATTTTAAGAA
remaining target (mRNA or protein) (fraction of control) [3]: ≥ 1

TCTTTCATGATCAAGTCCCT
remaining target (mRNA or protein) (fraction of control) [3]: 0.42

TGAAATTCATTGTCCAATAA
remaining target (mRNA or protein) (fraction of control) [3]: 0.99

TGAGATGACAGTAAAACATT
remaining target (mRNA or protein) (fraction of control) [2]: ≥ 1

TGAGTGATTATGCGTTCTCC
remaining target (mRNA or protein) (fraction of control) [1]: 0.8

TGCAGCAGCTCCGTGAGCCC
remaining target (mRNA or protein) (fraction of control) [1]: 0.57

TGCATAGCTATATATATCGT
remaining target (mRNA or protein) (fraction of control) [3]: 0.77

TGCCGGCGGCGGCCGAAGGG
remaining target (mRNA or protein) (fraction of control) [1]: ≥ 1

TGGTCCCGGGCGCTCAGGCC
remaining target (mRNA or protein) (fraction of control) [3]: 0.23

TGTGGCTGACCAGAAGGTTT
remaining target (mRNA or protein) (fraction of control) [1]: 0.53

TGTTCAAACCACGGAGTTCA
remaining target (mRNA or protein) (fraction of control) [2]: 0.62

TTACATGCTTTTATTTTGAA
remaining target (mRNA or protein) (fraction of control) [3]: 0.5

TTATCTGCAAAGGATTGGTG
remaining target (mRNA or protein) (fraction of control) [3]: 0.45

TTCATGGTCCCGGGCGCTCA
remaining target (mRNA or protein) (fraction of control) [3]: 0.53

TTCTAAAAGTCACCCGGTCC
remaining target (mRNA or protein) (fraction of control) [1]: 0.39

TTCTCTGAGACTTCTGCCCA
remaining target (mRNA or protein) (fraction of control) [2]: 0.49

TTGAACCTCTGCCCATCCTT
remaining target (mRNA or protein) (fraction of control) [1]: 0.39

TTTAGTCCTGCTTCTAATCA
remaining target (mRNA or protein) (fraction of control) [1]: 0.73

TTTATTCCCCACCACTTTGT
remaining target (mRNA or protein) (fraction of control) [2]: 0.38

TTTCCTATGTAGGAGTTCAT
remaining target (mRNA or protein) (fraction of control) [3]: ≥ 1

TTTGTGGTCTCGGCACCCTC
remaining target (mRNA or protein) (fraction of control) [2]: 0.77

TTTGTTGGTGACCAGGGCAA
remaining target (mRNA or protein) (fraction of control) [1]: 0.6

TTTTAATCTTGATGATGCAA
remaining target (mRNA or protein) (fraction of control) [2]: 0.71
